Laboratory results reported in US20250263376A1, “(E)-N-CINNAMOYLAMINOALKANOLS WITH MELANOGENESIS INHIBITORY ACTIVITY” (Uniwersytet Jagiellonski, priority 2024, published 2025).

Assays:
[1] = tested on: Balb/c 3T3 murine fibroblast cell line; assay: Phototoxicity, neutral red uptake in Balb/c 3T3 fibroblasts
Description: d) Phototoxicity Assessment Using the Balb/c 3T3 Murine Fibroblast Cell Line
Balb/c 3T3 cells, which are an immortalized murine fibroblast cell line, were purchased at ATTC and cultured in the medium recommended by the manufacturer (DMEM GlutaMAX, newborn calf serum (BCS), antibiotics). After multiplication, cells were placed in 96-well plates, which were incubated for 24 hours, after which all wells of the plates were washed with 150 μL of balanced salt solution (HBSS). Then, after drying the plates, 100 μL of a solution of the tested compounds in HBSS with 2% FBS was added to each well and incubated for an hour. After this time, some of the plates were irradiated using the Suntest CPS+sunlight simulator from Atlas with appropriate filters cutting off radiation with a wavelength <320 nm (UVA radiation intensity 5 J/cm^2). The second part of the plates was placed in radiation-free conditions for the same period of time. After the exposure time, the liquid was removed from all plates and the wells were washed twice with 150 μL of HBSS, then supplemented with fresh culture medium and incubated for 24 hours in an incubator (37° C., 5% CO2). Viability was assessed in the neutral red uptake test, which is based on the ability of the dye to penetrate only into living cells. Dye uptake was confirmed by absorbance measurement at 540 nm. […] The appropriate coefficients were also calculated: mean phototoxic effect (MPE) and photoirritation factor (PIF). PIF is the ratio of the IC50 values of unirradiated to irradiated cells, while MPE is based on the comparison of concentration-response curves.

[2] = tested on: reconstituted human epidermis EpiDerm; details: 21 h, 0.01 %
Description: Phototoxicity Studies in a Model of Reconstructed Human Epidermis.
An epidermis with an area of 0.6 cm^2 was used. After receiving the tissue, the inserts were transferred to fresh medium and incubated in an incubator (5% CO2, 37° C.). All work during epidermis culture and application of the tested compounds and formulations was carried out in a laminar air flow chamber, using aseptic principles and sterile reagents and utensils. […] The applied solutions and formulation were spread on the surface of the inserts using a sterile glass bulb headed Pasteur pipette. The plates were incubated in the incubator for 21 hours, after which the inserts were transferred to new 6-well plates with 0.9 mL DBPS. 1 plate was exposed to UVA radiation at a dose of 6 J/cm^2 using a solar light simulator (Solar Simulator, Atlas) as its source (+UVA plate). The second plate was placed in a dark place outside the incubator for the same period of time (−UVA plate). After exposure, inserts from both plates were rinsed with DPBS, dried with a sterile cotton bud and placed in new plates containing 0.9 mL of fresh growth medium and incubated for 21 hours. […] After this time, the formed formazan was extracted into isopropanol and the absorbance of all samples was read at 270 nm.

tyrosinase = details: literature [6]; read-out: IC50, tyrosinase diphenolase activity; cited from earlier work
[3] = cream, 7-day application before UV exposure, compared to untreated skin; literature [8]; cited from earlier work

| SMILES | phototoxic potential [1] | MPE (mean phototoxic effect) ([1]; mouse, 1 h) | PIF (photoirritation factor) ([1]; mouse, 1 h) | Viability [% relative to water] ± SD, +UVA [2] | Viability [% relative to water] ± SD, −UVA [2] | IC50 (tyrosinase) [µM] | inhibition of erythema formation [3] [%] |
| --- | --- | --- | --- | --- | --- | --- | --- |
| CN(C)CCCN1c2ccccc2Sc2ccc(Cl)cc21 [Chlorpromazine, reference compound] | clearly indicate its phototoxic potential | 0.499 | 25.618 | 26.97 ± 6.05 % relative to water | 99.52 ± 9.41 % relative to water |  |  |
| O=C(O)C=Cc1ccc(O)cc1 [4-Hydroxycinnamic acid] |  |  |  |  |  | 500 | 77 |
